Reference: patent publication US10696692B2, “Amido-benzyl sulfone and sulfoxide derivates” (Forma TM, LLC, priority 2012, dated 2020)
Read-outs that look alike come from different tables or passages of the source.

Legend:
[1] = biological target: NAMPT (Homo sapiens (Human), UniProt P43490); assay: Assay 1: Biochemical Inhibition Assay (NAMPT enzymatic reaction, NMN quantified by mass spectrometry); conditions: read-out: Biochemical (IC50);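 also: recombinant His-tagged human NAMPT preincubated with compound 15 min, then reacted 30 min at rt with 1 µM NAM, 100 µM PRPP, 2.5 mM ATP, NMN product read by RapidFire MS, normalized to L-Cystathionine internal standard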
[2] = tested on: A2780 cells; assay: Assay 2: In-Vitro Cell Proliferation Assay (A2780 cells, SRB readout, 72 hours); assay type: cell-based; conditions: A2780 cells, 72 hours, SRB, read-out: Cell Proliferation (IC50);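 also: viable cells counted via sulforhodamine B staining, absorbance at 570 nm, after 72 h exposure at 37 °C, DMSO 0.1% as control, media-only background subtracted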

Sequence of NAMPT (P43490 whole entry): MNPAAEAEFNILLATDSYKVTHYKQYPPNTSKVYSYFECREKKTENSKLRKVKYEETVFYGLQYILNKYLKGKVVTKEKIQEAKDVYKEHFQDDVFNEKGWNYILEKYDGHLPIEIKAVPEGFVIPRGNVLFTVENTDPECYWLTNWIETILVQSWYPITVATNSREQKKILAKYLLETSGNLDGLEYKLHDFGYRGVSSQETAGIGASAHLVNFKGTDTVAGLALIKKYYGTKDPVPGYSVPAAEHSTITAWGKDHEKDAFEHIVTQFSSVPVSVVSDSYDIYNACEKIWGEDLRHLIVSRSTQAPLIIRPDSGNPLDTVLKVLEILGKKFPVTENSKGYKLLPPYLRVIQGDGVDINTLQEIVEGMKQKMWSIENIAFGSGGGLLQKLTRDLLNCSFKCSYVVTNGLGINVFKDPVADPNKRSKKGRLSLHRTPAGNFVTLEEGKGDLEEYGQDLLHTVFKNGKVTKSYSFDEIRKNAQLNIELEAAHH

O=C(NCc1ccc(S(=O)(=O)N2CC3CCC(F)(F)C3C2)cc1)c1ccc2nccn2c1 (single isomer, unassigned) [Example 74, cis-Imidazo[1,2-a]pyridine-6-carboxylic acid 4-(4,4-difluoro-hexahydro-cyclopenta[c]pyrrole-2-sulfonyl)-benzylamide]
IC50 [1]: 5 nM | IC50 [2]: 2.7 nM

O=C(NCc1ccc(S(=O)(=O)N2CCCCC2)cc1)c1cn2[nH]ccc2n1 [Example 1, 5H-Imidazo[1,2-b]pyrazole-2-carboxylic acid 4-(piperidine-1-sulfonyl)-benzylamide]
IC50 [1]: 8100 nM | IC50 ([2]; Homo sapiens, A2780, 72 h): 19100 nM

O=C(NCc1ccc(S(=O)(=O)N2CC3CCC(C2)O3)cc1)c1cc2cnccc2[nH]1 [Example 2, 1H-Pyrrolo[3,2-c]pyridine-2-carboxylic acid 4-(8-oxa-3-aza-bicyclo[3.2.1]octane-3-sulfonyl)-benzylamide]
IC50 [1]: 28.1 nM | IC50 ([2]; Homo sapiens, A2780, 72 h): 13.8 nM

O=C(NCc1ccc(S(=O)(=O)N2CC3CCC(C2)O3)cc1)c1cc2ccncc2s1 [Example 3, Thieno[2,3-c]pyridine-2-carboxylic acid 4-(8-oxa-3-aza-bicyclo[3.2.1]octane-3-sulfonyl)-benzylamide]
IC50 [1]: 12.6 nM | IC50 ([2]; Homo sapiens, A2780, 72 h): 6.4 nM

O=C(NCc1ccc(S(=O)(=O)N2CC3CCC(C2)O3)cc1)c1ccc2nccn2c1 [Example 4, Imidazo[1,2-a]pyridine-6-carboxylic acid 4-(8-oxa-3-aza-bicyclo[3.2.1]octane-3-sulfonyl]-benzylamide]
IC50 [1]: 72 nM | IC50 ([2]; Homo sapiens, A2780, 72 h): 7.4 nM

O=C(NCc1ccc(S(=O)(=O)N2CCCCC2)cc1)c1cc2ccncc2o1 [Example 5, Furo[2,3-c]pyridine-2-carboxylic acid 4-(piperidine-1-sulfonyl)-benzylamide]
IC50 [1]: 9.4 nM | IC50 ([2]; Homo sapiens, A2780, 72 h): 29.2 nM

O=C(NCc1ccc(S(=O)(=O)N2CCCCC2)cc1)c1cnc2nccn2c1 [Example 6, Imidazo[1,2-a]pyrimidine-6-carboxylic acid 4-(piperidine-1-sulfonyl)-benzylamide]
IC50 [1]: 3.5 nM | IC50 ([2]; Homo sapiens, A2780, 72 h): 129 nM

COC1CCN(S(=O)(=O)c2ccc(CNC(=O)c3cc4ccncc4o3)cc2)CC1 [Example 7, Furo[2,3-c]pyridine-2-carboxylic acid 4-(4-methoxy-piperidine-1-sulfonyl)-benzylamide]
IC50 [1]: 10.9 nM | IC50 ([2]; Homo sapiens, A2780, 72 h): 13.3 nM

O=C(NCc1ccc(S(=O)(=O)N2CCOCC2)cc1)c1cnc2[nH]ncc2c1 [Example 9, 1H-Pyrazolo[3,4-b]pyridine-5-carboxylic acid 4-(morpholine-4-sulfonyl)-benzylamide]
IC50 [1]: 105 nM | IC50 ([2]; Homo sapiens, A2780, 72 h): 278 nM

O=C(NCc1ccc(S(=O)(=O)N2CCOCC2)cc1)c1ccc2nccn2c1 [Example 10, Imidazo[1,2-a]pyridine-6-carboxylic acid 4-(morpholine-4-sulfonyl)-benzylamide]
IC50 [1]: 25.1 nM | IC50 ([2]; Homo sapiens, A2780, 72 h): 14.8 nM

N#CC1CCN(S(=O)(=O)c2ccc(CNC(=O)c3cc4ccncc4o3)cc2)CC1 [Example 12, Furo[2,3-c]pyridine-2-carboxylic acid 4-(4-cyano-piperidine-1-sulfonyl)-benzylamide]
IC50 [1]: 26.2 nM | IC50 ([2]; Homo sapiens, A2780, 72 h): 186 nM

N#CCC1CCN(S(=O)(=O)c2ccc(CNC(=O)c3cc4ccncc4o3)cc2)CC1 [Example 13]
IC50 [1]: 12.6 nM | IC50 ([2]; Homo sapiens, A2780, 72 h): 33.8 nM

O=C(NCc1ccc(S(=O)(=O)N2CCOCC2)cc1)c1cnc2nccn2c1 [Example 15, Imidazo[1,2-a]pyrimidine-6-carboxylic acid 4-(morpholine-4-sulfonyl)-benzylamide]
IC50 [1]: 6.8 nM | IC50 ([2]; Homo sapiens, A2780, 72 h): 624 nM

O=C(NCc1ccc(S(=O)(=O)N2CCCCC2)cc1)c1ccc2nccn2n1 [Example 16, Imidazo[1,2-b]pyridazine-6-carboxylic acid 4-(piperidine-1-sulfonyl)-benzylamide]
IC50 [1]: 22 nM | IC50 ([2]; Homo sapiens, A2780, 72 h): 163 nM

CN1CCN(S(=O)(=O)c2ccc(CNC(=O)c3ccc4nccn4c3)cc2)CC1 [Example 17, Imidazo[1,2-a]pyridine-6-carboxylic acid 4-(4-methyl-piperazine-1-sulfonyl)-benzylamide]
IC50 [1]: 101 nM | IC50 ([2]; Homo sapiens, A2780, 72 h): 53.4 nM
